The nature of data set [1]: Toxicity in ip dosed mouse. It is filed as organism-based. The following applies: in vivo.
Data set [2] is described as follows: Toxicity in iv dosed mouse. The data set is classed as organism-based. The settings on record: in vivo.
For data set [3], the system named is Mus musculus. The data set can be described thus: Effect on behavioral activity in ip dosed mouse assessed as occurrence of mydriasis for 30 mins. It is filed as functional, organism-based.
The test system of data set [4] is Mus musculus. The data set can be described thus: Toxicity in ip dosed mouse assessed as death at LD50. The settings on record: in vivo. The data set is classed as organism-based.
Data set [5] has as its system Mus musculus. Put plainly: Toxicity in ip dosed mouse assessed as labored breathing and depression at LD50. The data set is classed as organism-based. The following applies: in vivo.

Each structure is given as a SMILES string. Activity calls are given as the source filed them. No cut-off for these calls is given here.

As usually defined, the LD50 is the dose at which mortality reaches 50%.

`COc1ccc2c(c1O)-c1c(OC)c(OC)cc3c1[C@H](C2)[N+](C)(C)CC3.[I-]` returned an LD50 in data set [1] of 10 mg/kg.
In data set [2], `COc1ccc2c(c1O)-c1c(OC)c(OC)cc3c1[C@H](C2)[N+](C)(C)CC3.[Cl-]` returned an LD50 of 2.2 mg/kg.
Turning to `COc1ccc2c(c1O)-c1c(O)c(OC)cc3c1[C@H](C2)[N+](C)(C)CC3` [MAGNOFLORINE], the result in the data set on Mus musculus [3] was Active. Moreover, the LD50 in data set [1] amounted to 19.6 mg/kg. Besides, the Activity is 15 min in the data set with Mus musculus [4] and 5 min with Mus musculus [5].

Source of the values: ChEMBL document CHEMBL1151387, “Constitutents of Magnolia Grandiflora. III. Toxic principle of the wood” (J Nat Prod, 1982).
